Measurements published in patent US8492559B2, “Substituted indole compounds” (Gruenenthal GmbH, priority 2009, dated 2013).

target: T1, human B1R receptor (hB1R) (Homo sapiens, UniProt P46663); experiment: Functional investigation on the bradykinin 1 receptor (B1R), FLIPR Ca2+ assay, hB1R cells; assay type: cell-based; settings: 10 μM test substance; CHO K1 cells with human B1R; agonist Lys-Des-Arg9 bradykinin; % of maximum achievable inhibition
T1 construct: expressed in transfected cells; host or cells: CHO K1 cells
T1 sequence (P46663 1-353): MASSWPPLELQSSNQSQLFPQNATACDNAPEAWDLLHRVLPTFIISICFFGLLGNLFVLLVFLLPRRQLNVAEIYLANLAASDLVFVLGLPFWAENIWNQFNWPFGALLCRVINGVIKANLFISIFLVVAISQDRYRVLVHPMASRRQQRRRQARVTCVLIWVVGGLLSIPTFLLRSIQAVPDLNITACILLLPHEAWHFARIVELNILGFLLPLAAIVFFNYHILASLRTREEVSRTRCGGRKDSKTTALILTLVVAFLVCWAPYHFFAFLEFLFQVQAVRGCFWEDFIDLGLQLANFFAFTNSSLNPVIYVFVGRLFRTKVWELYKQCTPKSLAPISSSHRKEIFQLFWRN
Procedure: The agonistic or antagonistic action of substances can be quantified on the bradykinin 1 receptor (B1R) of the human and rat species with ectopically expressing cell lines (CHO K1 cells) and with the aid of a Ca^2+-sensitive dye (Fluo-4) using a fluorescent imaging plate reader (FLIPR). The indication in % activation is based on the Ca^2+ signal after addition of Lys-Des-Arg^9 bradykinin (0.5 nM) or Des-Arg^9 bradykinin (100 nM). Antagonists lead to a suppression of the Ca^2+ influx following administration of the agonist. The % inhibition in comparison with the maximum achievable inhibition is indicated.
1. Functional Investigation on the Bradykinin 1 Receptor (B1R)
The agonistic or antagonistic action of substances can be determined on the bradykinin 1 receptor (B1R) of the human and rat species with the following assay. According to this assay, the Ca^2+ inflow through the channel is quantified with the aid of a Ca^2+-sensitive dye (Fluo-4 type, Molecular Probes Europe BV, Leiden, Netherlands) in a fluorescent imaging plate reader (FLIPR, Molecular Devices, Sunnyvale, USA).
Chinese hamster ovary cells (CHO K1 cells) which are stably transfected with the human B1R gene (hB1R cells) or the B1R gene of the rat (rB1R cells) are used. For functional investigations these cells are plated-out onto black 96-well plates with a clear base (BD Biosciences, Heidelberg, Germany or Greiner, Frickenhausen, Germany) in a density of 20,000-35,000 cells/well. Overnight the cells are incubated at 37° C. and 5% CO2 in culture medium (hB1R cells: Ham's Nutrient Mixture F12, Gibco Invitrogen GmbH, Karlsruhe, Germany or DMEM, Sigma-Aldrich, Taufkirchen, Germany; rB1R cells: D-MEM/F12, Gibco Invitrogen, Karlsruhe, Germany) with 10 vol. % FBS (foetal bovine serum, Gibco Invitrogen GmbH, Karlsruhe, Germany or PAN Biotech GmbH, Aidenbach, Germany).
On the following day the cells are loaded with 2.13 μM Fluo-4 (Molecular Probes Europe BV, Leiden, Netherlands) in HBSS buffer (Hank's buffered saline solution, Gibco Invitrogen GmbH, Karlsruhe, Germany) with 2.5 mM probenecid (Sigma-Aldrich, Taufkirchen, Germany) and 10 mM HEPES (Sigma-Aldrich, Taufkirchen, Germany) for 60 min at 37° C. The plates are subsequently washed twice with HBSS buffer, and HBSS buffer which additionally contains 0.1% BSA (bovine serum albumin; Sigma-Aldrich, Taufkirchen, Germany), 5.6 mM glucose and 0.05% gelatine (Merck KGaA, Darmstadt, Germany) is added. After a further incubation of 20 minutes at room temperature, the plates are inserted into the FLIPR for Ca^2+ measurement.
Alternatively they are washed with buffer A (15 mM HEPES, 80 mM NaCl, 5 mM KCl, 1.2 mM CaCl2, 0.7 mM MgSO4, 2 g/l glucose, 2.5 mM probenecid) and loaded with buffer A with added 2.5 μM Fluo-4 and 0.025% Pluronic F127 (Sigma-Aldrich, Taufkirchen, Germany). The cells are then washed twice with buffer A and incubated for 30 minutes with buffer A, which additionally contains 0.05% BSA and 0.05% gelatine, at room temperature and then used for Ca^2+ measurement in the FLIPR. The Ca^2+-dependent fluorescence is measured here before and after addition of substances (λex=488 nm, λem=540 nm). The quantification is performed by measuring the highest fluorescence intensity (FC, fluorescence counts) over time.
The FLIPR protocol comprises two additions of substance. Test substances (10 μM) are first pipetted onto the cells and the Ca^2+ inflow is compared with the control (hB1R: Lys-Des-Arg^9 bradykinin>=50 nM; rB1R: Des-Arg^9 bradykinin 10 μM). The value in % activation based on the Ca^2+ signal after addition of Lys-Des-Arg^9 bradykinin (>=50 nM) or Des-Arg^9 bradykinin (10 μM) is obtained therefrom. After incubation for 10-20 minutes, Lys-Des-Arg^9 bradykinin (hB1R) or Des-Arg^9 bradykinin (rB1R) is applied in the EC80 concentration and the inflow of Ca^2+ is likewise determined.
Antagonists lead to a suppression of the Ca^2+ inflow. The % inhibition in comparison with the maximum achievable inhibition is calculated. […]

| B1R antagonism, human [10 μM] % inhibition | Structure (SMILES) |
| --- | --- |
| 100% | COc1cc(C)c(S(=O)(=O)Nc2cccc3ccn(CC(=O)N4CCC5(CC4)CCN(c4ccncc4)CC5)c23)c(C)c1 [Compound G-05, 4-Methoxy-2,6-dimethyl-N-[1-[2-oxo-2-(9-pyridin-4-yl-3,9-diazaspiro[5.5]undecan-3-yl)-ethyl]-1H-indol-7-yl]-benzenesulfonic acid amide] |

same assay, conditions: CHO-K1, 10 μM test substance; CHO K1 cells with human B1R; agonist Lys-Des-Arg9 bradykinin; % of maximum achievable inhibition; read-out: B1R antagonism, human [10 μM] % inhibition

| inhibition at 10 µM | Structure (SMILES) |
| --- | --- |
| 99% | COc1cc(C)c(S(=O)(=O)Nc2cccc3ccn(CC(=O)N4CCC5(CCN(c6ccncc6)CC5)C4)c23)c(C)c1 [Compound G-14, 4-Methoxy-2,6-dimethyl-N-(1-(2-oxo-2-(8-(pyridin-4-yl)-2,8-diazaspiro[4.5]decan-2-yl)ethyl)-1H-indol-7-yl)benzenesulfonic acid amide] |
| 81% | O=C(Cn1ccc2ccc(N3Cc4cccc(Cl)c4C3=O)cc21)N1CCC2(CC1)CC(c1ccncc1)=NO2 [Compound G-15, 7-Chloro-2-(1-(2-oxo-2-(3-(pyridin-4-yl)-1-oxa-2,8-diazaspiro[4.5]dec-2-en-8-yl)ethyl)-1H-indol-6-yl)isoindolin-1-one] |
| 100% | COc1cc(C)c(S(=O)(=O)Nc2cccc3ccn(CC(=O)N4CCC(N5CCc6cc(CN7CCCCC7)ccc6C5)C4)c23)c(C)c1 (stereo not drawn) [Compound G-16, 4-Methoxy-2,6-dimethyl-N-(1-(2-oxo-2-(3-(6-(piperidin-1-ylmethyl)-3,4-dihydroisoquinolin-2(1H)-yl)pyrrolidin-1-yl)ethyl)-1H-indol-7-yl)benzenesulfonic acid amide] |
| 100% | COc1cc(C)c(S(=O)(=O)Nc2cccc3ccn(CC(=O)N4CCC5(CCN(c6ccncc6)C5)C4)c23)c(C)c1 (stereo not drawn) [Compound G-17, 4-Methoxy-2,6-dimethyl-N-(1-(2-oxo-2-(7-(pyridin-4-yl)-2,7-diazaspiro[4.4]nonan-2-yl)ethyl)-1H-indol-7-yl)benzenesulfonic acid amide] |
| 99% | COc1cc(C)c(S(=O)(=O)Nc2cccc3ccn(CC(=O)N4CCC5(CCC(N6CCC6)CC5)CC4)c23)c(C)c1 [Compound G-18, N-(1-(2-(9-(azetidin-1-yl)-3-azaspiro[5.5]undecan-3-yl)-2-oxoethyl)-1H-indol-7-yl)-4-methoxy-2,6-dimethylbenzenesulfonic acid amide] |
| 97% | O=C(Cn1ccc2ccc(N3Cc4cccc(Cl)c4C3=O)cc21)N1CCC2(CCC(Oc3ccncc3)CC2)CC1 [Compound G-19, 7-Chloro-2-(1-(2-oxo-2-(9-(pyridin-4-yloxy)-3-azaspiro[5.5]undecan-3-yl)ethyl)-1H-indol-6-yl)isoindolin-1-one] |
| 43% | O=C(Cn1ccc2ccc(N3Cc4cccc(Cl)c4C3=O)cc21)N1CCC2(CCC(N3CC(F)(F)C3)CC2)CC1 [Compound G-20, 7-Chloro-2-(1-(2-(9-(3,3-difluoroazetidin-1-yl)-3-azaspiro[5.5]undecan-3-yl)-2-oxoethyl)-1H-indol-6-yl)isoindolin-1-one] |

The next lines start with the compound.

| Structure (SMILES) | inhibition at 10 µM |
| --- | --- |
| COc1cc(C)c(S(=O)(=O)Nc2ccc3ccn(CC(=O)N4CCC(CCN5CCCC5)CC4)c3c2)c(C)c1 [Compound G-01, 4-Methoxy-2,6-dimethyl-N-[1-[2-oxo-2-[4-(2-pyrrolidin-1-yl-ethyl)-piperidin-1-yl]-ethyl]-1H-indol-6-yl]-benzenesulfonic acid amide] | 98% |
| COc1cc(C)c(S(=O)(=O)Nc2cccc3ccn(CC(=O)N4CCC(CCN5CCCC5)CC4)c23)c(C)c1 [Compound G-02, 4-Methoxy-2,6-dimethyl-N-[1-[2-oxo-2-[4-(2-pyrrolidin-1-yl-ethyl)-piperidin-1-yl]-ethyl]-1H-indol-7-yl]-benzenesulfonic acid amide] | 95% |
| COc1cc(C)c(S(=O)(=O)Nc2cccc3ccn(CC(=O)N4CCC5(CC4)C(=O)NCN5c4ccccc4)c23)c(C)c1 [Compound G-04, 4-Methoxy-2,6-dimethyl-N-[1-[2-oxo-2-(1-oxo-4-phenyl-2,4,8-triazaspiro[4.5]decan-8-yl)-ethyl]-1H-indol-7-yl]-benzenesulfonic acid amide] | 68% |
| COc1cc(C)c(S(=O)(=O)Nc2cccc3ccn(CC(=O)N4CCC(OCCN5CCCC5)(c5cccnc5)CC4)c23)c(C)c1 [Compound G-06, 4-Methoxy-2,6-dimethyl-N-[1-[2-oxo-2-[4-pyridin-3-yl-4-(2-pyrrolidin-1-yl-ethoxy)-piperidin-1-yl]-ethyl]-1H-indol-7-yl]-benzenesulfonic acid amide] | 83% |
| O=C(CCn1ccc2ccc(N3Cc4cccc(Cl)c4C3=O)cc21)N1CCC2(CC1)CCN(c1ccncc1)CC2 [Compound G-07, 7-Chloro-2-[1-[3-oxo-3-(9-pyridin-4-yl-3,9-diazaspiro[5.5]undecan-3-yl)-propyl]-1H-indol-6-yl]-2,3-dihydro-isoindol-1-one] | 96% |
| O=C(Cn1ccc2ccc(N3Cc4cccc(Cl)c4C3=O)cc21)N1CCC2(CC1)CCN(c1ccncc1)CC2 [Compound G-08, 7-Chloro-2-[1-[2-oxo-2-(9-pyridin-4-yl-3,9-diazaspiro[5.5]undecan-3-yl)-ethyl]-1H-indol-6-yl]-2,3-dihydro-isoindol-1-one] | 98% |
| O=C(CCn1ccc2cccc(N3Cc4cccc(Cl)c4C3=O)c21)N1CCC2(CC1)CCN(c1ccncc1)CC2 [Compound G-10, 7-Chloro-2-(1-(3-oxo-3-(9-(pyridin-4-yl)-3,9-diazaspiro[5.5]undecan-3-yl)propyl)-1H-indol-7-yl)isoindolin-1-one] | 100% |
| O=C(Cn1ccc2cccc(N3Cc4cccc(Cl)c4C3=O)c21)N1CCC2(CC1)CCN(c1ccncc1)CC2 [Compound G-11, 7-Chloro-2-(1-(2-oxo-2-(9-(pyridin-4-yl)-3,9-diazaspiro[5.5]undecan-3-yl)ethyl)-1H-indol-7-yl)isoindolin-1-one] | 46% |
| O=C(Cn1ccc2ccc(N3Cc4cccc(Cl)c4C3=O)cc21)N1CCC2(CCN(c3ccncc3)CC2)C1 [Compound G-12, 7-Chloro-2-(1-(2-oxo-2-(8-(pyridin-4-yl)-2,8-diazaspiro[4.5]decan-2-yl)ethyl)-1H-indol-6-yl)isoindolin-1-one] | 98% |
| COc1cc(C)c(S(=O)(=O)Nc2cccc3ccn(CC(=O)N4CCC5(CC4)CC(c4ccncc4)=NO5)c23)c(C)c1 [Compound G-13, 4-Methoxy-2,6-dimethyl-N-(1-(2-oxo-2-(3-(pyridin-4-yl)-1-oxa-2,8-diazaspiro[4.5]dec-2-en-8-yl)ethyl)-1H-indol-7-yl)benzenesulfonic acid amide] | 73% |
